Experimental findings from US8580965B2, “Substituted sulfonamide compounds” (Gruenenthal GmbH, priority 2006, dated 2013) are described below.

For one assay, the target named is T1, human B1R receptor (bradykinin 1 receptor) (Homo sapiens, UniProt P46663).
T1 construct: host or cells: CHO K1 cells (hB1R cells)
T1 sequence (P46663 1-353): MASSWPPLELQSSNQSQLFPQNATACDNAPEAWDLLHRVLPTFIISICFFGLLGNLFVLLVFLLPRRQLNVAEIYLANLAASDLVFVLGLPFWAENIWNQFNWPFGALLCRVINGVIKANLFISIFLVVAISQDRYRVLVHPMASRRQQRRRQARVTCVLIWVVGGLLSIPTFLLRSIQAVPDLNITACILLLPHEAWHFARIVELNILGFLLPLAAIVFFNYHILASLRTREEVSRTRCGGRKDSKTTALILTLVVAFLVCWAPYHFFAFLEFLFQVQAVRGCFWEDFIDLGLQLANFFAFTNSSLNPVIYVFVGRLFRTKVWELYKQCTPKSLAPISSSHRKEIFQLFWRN
Briefly: FLIPR Ca2+ assay (Fluo-4) on CHO K1 cells stably transfected with the human B1R gene; % activation and % inhibition at 10 μM. It is filed as cell-based. The conditions noted are these: CHO-K1, test substance 10 μM; CHO K1 hB1R cells; Ca2+ inflow after 0.5 nM Lys-Des-Arg9-bradykinin; read-out: B1R antagonism, human [10 μM] % inhibition. The method, then: (§1) The agonistic or antagonistic action of substances can be quantified on the bradykinin receptor 1 (B1R) of the species human and rat with ectopically expressing cell lines (CHO K1 cells) and with the aid of a Ca^2+-sensitive dye (Fluo-4) using a fluorescent imaging plate reader (FLIPR). The indication in % activation is based on the Ca^2+ signal after addition of Lys-Des-Arg^9-bradykinin (0.5 nM) or Des-Arg^9-bradykinin (100 nM). Antagonists result in a suppression of the Ca^2+ influx following administration of the agonist. The % inhibition in comparison with the maximum achievable inhibition is indicated.
(§2) Functional Investigation on the Bradykinin 1 Receptor (B1R)
(§3) The agonistic or antagonistic action of substances can be determined on the bradykinin 1 receptor (B1R) of the human and rat species with the following assay. According to this assay, the Ca^2+ inflow through the channel is quantified with the aid of a Ca^2+-sensitive dyes (Fluo-4 type, Molecular Probes Europe BV, Leiden, The Netherlands) in a fluorescent imaging plate reader (FLIPR, Molecular Devices, Sunnyvale, USA).
(§4) Chinese Hamster Ovary cells (CHO K1 cells) which are stably transfected with the human B1R gene (hB1R cells, Euroscreen s.a., Gosselies, Belgium) or the B1R gene of the rat (rB1R cells, Axxam, Milan, Italy) are used. For functional investigations, these cells are plated-out on black 96-well plates with a clear base (BD Biosciences, Heidelberg, Germany) in a density of 20,000-25,000 cells/well. Overnight, the cells are incubated at 37° C. and 5% CO2 in culture medium (hB1R cells: Nutrient Mixture Ham's F12, Gibco Invitrogen GmbH, Karlsruhe, Germany; rB1R cells: D-MEM/F12, Gibco Invitrogen, Karlsruhe, Germany) with 10 vol. % FBS (foetal bovine serum, Gibco Invitrogen GmbH, Karlsruhe, Germany). On the following day, the cells are loaded with 2.13 μM Fluo-4 (Molecular Probes Europe BV, Leiden, The Netherlands) in HBSS buffer (Hank's buffered saline solution, Gibco Invitrogen GmbH, Karlsruhe, Germany) […] (Sigma-Aldrich, Taufkirchen, Germany) and 10 mM HEPES (Sigma-Aldrich, Taufkirchen, Germany) for 60 min at 37° C. The plates are subsequently washed 2× with HBSS buffer, and HBSS buffer which additionally contains 0.1% BSA (bovine serum albumin; Sigma-Aldrich, Taufkirchen, Germany), 5.6 mM glucose and 0.05% gelatine (Merck KGaA, Darmstadt, Germany) is added. After a further incubation of 20 minutes at room temperature, the plates are inserted into the FLIPR for Ca^2+ measurement. The Ca^2+-dependent fluorescence is measured here before and after addition of substances (λex=488 nm, λem=540 nm). The quantification is effected by measurement of the highest fluorescence intensity (FC, fluorescence counts) over time.
(§5) The FLIPR protocol comprises 2 additions of substance. Test substances (10 μM) are first pipetted on to the cells and the Ca^2+ inflow is compared with the control (hB1R: Lys-Des-Arg^9-bradykinin 0.5 nM; rB1R: Des-Arg^9-bradykinin 100 nM). The value in % activation based on the Ca^2+ signal after addition of Lys-Des-Arg^9-bradykinin (0.5 nM) or Des-Arg^9-bradykinin (100 nM) is obtained therefrom. After incubation for 10 minutes, 0.5 nM Lys-Des-Arg^9-bradykinin (hB1R) or 100 nM Des-Arg^9-bradykinin (rB1R) are applied and the inflow of Ca^2+ is likewise determined. Antagonists lead to a suppression of the Ca^2+ inflow. % inhibition compared with the maximum inhibition which can be achieved is calculated. The compounds show a good activity on the human and on the rat receptor. The following data were determined by way of example: […]
Turning to `CCN(CCOCC(=O)N1CCC(O)(Cc2ccccc2)CC1)S(=O)(=O)c1c(C)cc(OC)c(C)c1C` [Example 1, N-{2-[2-(4-benzyl-4-hydroxy-piperidin-1-yl)-2-oxo-ethoxy]-ethyl}-N-ethyl-4-methoxy-2,3,6-trimethyl-phenylsulfonamide], the inhibition – broadly, the drop in the measured response relative to a control, in per cent – at 10 µM was 104%.
Still for that read-out and setting: as for `COc1cc(C)c(S(=O)(=O)N2CCCCC2COCCC(=O)N2CCC(O)(c3ccc(Cl)cc3)CC2)c(C)c1` (stereo not drawn) [Example 181, 1-(4-(4-chlorophenyl)-4-hydroxypiperidin-1-yl)-3-((1-(4-methoxy-2,6-dimethylphenylsulfonyl)piperidin-2-yl)methoxy)propan-1-one], the figure is 75.4%; as for `COc1cc(C)c(S(=O)(=O)N2CCCCC2COCCC(=O)N2CCC(O)(c3ccc(Br)cc3)CC2)c(C)c1` (stereo not drawn) [Example 182, 1-(4-(4-bromophenyl)-4-hydroxypiperidin-1-yl)-3-((1-(4-methoxy-2,6-dimethylphenylsulfonyl)piperidin-2-yl)methoxy)propan-1-one], 80%; as for `COc1cc(C)c(S(=O)(=O)N2CCCCC2COCCC(=O)N2CCC(O)(c3ccccc3)CC2)c(C)c1` (stereo not drawn) [Example 183, 1-(4-hydroxy-4-phenylpiperidin-1-yl)-3-((1-(4-methoxy-2,6-dimethylphenylsulfonyl)piperidin-2-yl)methoxy)propan-1-one], 68.2%.
Same read-out and setting: in the case of `COc1cc(C)c(S(=O)(=O)N2CCCC(OCCC(=O)N3CCC(O)(c4ccc(Cl)cc4)CC3)C2)c(C)c1` (stereo not drawn) [Example 184, 1-(4-(4-chlorophenyl)-4-hydroxypiperidin-1-yl)-3-(1-(4-methoxy-2,6-dimethylphenylsulfonyl)piperidin-3-yloxy)propan-1-one] it was 56.1%; in that of `COc1cc(C)c(S(=O)(=O)N2CCCC(OCCC(=O)N3CCC(O)(c4ccc(Br)cc4)CC3)C2)c(C)c1` (stereo not drawn) [Example 185, 1-(4-(4-bromophenyl)-4-hydroxypiperidin-1-yl)-3-(1-(4-methoxy-2,6-dimethylphenylsulfonyl)piperidin-3-yloxy)propan-1-one], 54.6%.
With `COc1cc(C)c(S(=O)(=O)N2CCC(OCCC(=O)N3CCC(O)(c4ccc(Cl)cc4)CC3)C2)c(C)c1` (stereo not drawn) [Example 186, 1-(4-(4-chlorophenyl)-4-hydroxypiperidin-1-yl)-3-(1-(4-methoxy-2,6-dimethylphenylsulfonyl)pyrrolidin-3-yloxy)propan-1-one], the inhibition at 10 µM was 99.8%.
Same read-out and setting: in the case of `COc1cc(C)c(S(=O)(=O)N2CCC(OCCC(=O)N3CCC(O)(c4ccc(Br)cc4)CC3)C2)c(C)c1` (stereo not drawn) [Example 187, 1-(4-(4-bromophenyl)-4-hydroxypiperidin-1-yl)-3-(1-(4-methoxy-2,6-dimethylphenylsulfonyl)pyrrolidin-3-yloxy)propan-1-one] it was 99.9%; in that of `COc1cc(C)c(S(=O)(=O)N2CCC(OCCC(=O)N3CCC(O)(c4ccccc4)CC3)C2)c(C)c1` (stereo not drawn) [Example 188, 1-(4-hydroxy-4-phenylpiperidin-1-yl)-3-(1-(4-methoxy-2,6-dimethylphenylsulfonyl)pyrrolidin-3-yloxy)propan-1-one], 52.7%; in that of `COc1cc(C)c(S(=O)(=O)N2CCC(OCCC(=O)N3CCC(O)(Cc4ccccc4)CC3)C2)c(C)c1` (stereo not drawn) [Example 189, 1-(4-benzyl-4-hydroxypiperidin-1-yl)-3-(1-(4-methoxy-2,6-dimethylphenylsulfonyl)pyrrolidin-3-yloxy)propan-1-one], 54.2%.
On the same count and under the same terms, in the case of `COc1cc(C)c(S(=O)(=O)N2CCC(OCCC(=O)N3CCC(O)(c4cccc(C(F)(F)F)c4)CC3)C2)c(C)c1` (stereo not drawn) [Example 190, 1-(4-hydroxy-4-(3-(trifluoromethyl)phenyl)piperidin-1-yl)-3-(1-(4-methoxy-2,6-dimethylphenylsulfonyl)pyrrolidin-3-yloxy)propan-1-one] it was 103%.

Still in this assay, the particulars now being: test substance 10 μM; CHO K1 hB1R cells; Ca2+ inflow after 0.5 nM Lys-Des-Arg9-bradykinin.
As for “2-((2-(3,4-dichlorophenylsulfonyl)-1,2,3,4-tetrahydroisoquinolin-3-yl)methoxy)-1-(4-hydroxy-4-phenylpiperidin-1-yl)ethanone [Example 76]”, the “B1R antagonism, human [10 μM] % inhibition” value is given as 9.96%.

The target in a further assay is T2, B1R receptor of the rat (bradykinin 1 receptor) (Rattus norvegicus, UniProt P97583).
T2 construct: host or cells: CHO K1 cells (rB1R cells)
T2 sequence (P97583 1-337): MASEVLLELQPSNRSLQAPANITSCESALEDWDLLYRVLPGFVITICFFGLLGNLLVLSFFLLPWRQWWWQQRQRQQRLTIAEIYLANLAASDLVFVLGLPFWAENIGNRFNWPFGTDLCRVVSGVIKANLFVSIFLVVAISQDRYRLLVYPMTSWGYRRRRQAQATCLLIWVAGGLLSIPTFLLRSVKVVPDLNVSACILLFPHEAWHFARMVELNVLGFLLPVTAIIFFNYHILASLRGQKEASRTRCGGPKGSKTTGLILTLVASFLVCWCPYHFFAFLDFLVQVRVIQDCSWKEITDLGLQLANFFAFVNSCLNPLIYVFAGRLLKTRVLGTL
Briefly: FLIPR Ca2+ assay (Fluo-4) on CHO K1 cells stably transfected with the B1R gene of the rat; % activation and % inhibition at 10 μM. It is filed as cell-based. The note with it: CHO-K1, test substance 10 μM; CHO K1 rB1R cells; Ca2+ inflow after 100 nM Des-Arg9-bradykinin; read-out: B1R antagonism, rat [10 μM] % inhibition. Here is the method: as §1, §2, §3, §4, §5
Take `CCN(CCOCC(=O)N1CCC(O)(Cc2ccccc2)CC1)S(=O)(=O)c1c(C)cc(OC)c(C)c1C` [Example 1, N-{2-[2-(4-benzyl-4-hydroxy-piperidin-1-yl)-2-oxo-ethoxy]-ethyl}-N-ethyl-4-methoxy-2,3,6-trimethyl-phenylsulfonamide]: the inhibition at 10 µM stood at 102%.
As for `O=C(COCC1CCc2ccccc2N1S(=O)(=O)c1ccc(Cl)c(Cl)c1)N1CCC(O)(c2cccc(F)c2)CC1` (stereo not drawn) [Example 145, 2-((1-(3,4-dichlorophenylsulfonyl)-1,2,3,4-tetrahydroquinolin-2-yl)methoxy)-1-(4-(3-fluorophenyl)-4-hydroxypiperidin-1-yl)ethanone], the inhibition at 10 µM stood at 77.3%.
Same read-out and setting: as for `Cc1cc(S(=O)(=O)N2CCCCC2COCC(=O)N2CCC(O)(c3ccc(Cl)c(C(F)(F)F)c3)CC2)c(C)cc1Cl` (stereo not drawn) [Example 160, 2-((1-(4-chloro-2,5-dimethylphenylsulfonyl)piperidin-2-yl)methoxy)-1-(4-(4-chloro-3-(trifluoromethyl)phenyl)-4-hydroxypiperidin-1-yl)ethanone], the figure is 105%; as for `O=C(COCC1CCCCN1S(=O)(=O)c1cc(Cl)sc1Cl)N1CCC(O)(c2ccc(Cl)c(C(F)(F)F)c2)CC1` (stereo not drawn) [Example 247, 1-(4-(4-chloro-3-(trifluoromethyl)phenyl)-4-hydroxypiperidin-1-yl)-2-((1-(2,5-dichlorothiophen-3-ylsulfonyl)piperidin-2-yl)methoxy)ethanone], 99.2%; as for `COc1cc(C)c(S(=O)(=O)N2CCCC(COCC(=O)N3CCC(O)(c4ccc(Cl)c(C(F)(F)F)c4)CC3)C2)c(C)c1` (stereo not drawn) [Example 253, 1-(4-(4-chloro-3-(trifluoromethyl)phenyl)-4-hydroxypiperidin-1-yl)-2-((1-(4-methoxy-2,6-dimethylphenylsulfonyl)piperidin-3-yl)methoxy)ethanone], 79.9%.

The assay is the same for the next values; noted with them: test substance 10 μM; CHO K1 rB1R cells; Ca2+ inflow after 100 nM Des-Arg9-bradykinin.
Turning to “2-((2-(3,4-dichlorophenylsulfonyl)-1,2,3,4-tetrahydroisoquinolin-3-yl)methoxy)-1-(4-hydroxy-4-phenylpiperidin-1-yl)ethanone [Example 76]”, the “B1R antagonism, rat [10 μM] % inhibition” value was determined as 43.59%.
